Measurements reported in patent publication US20240167030A1, “METHODS AND COMPOSITIONS FOR ACCELERATING OLIGODENDROCYTE MATURATION” (Case Western Reserve University, priority 2021, published 2024).

How the values were obtained:
Type in all cases: cell-based, mouse
SOX6 = assay: Western blot of SOX6 in CRISPR-Cas9 knockout OPCs; conditions: knockout OPCs compared to non-targeting control (sgNTC)
Excerpt: Generation of mouse CRISPR KO OPCs: CRISPR knockout (KO) OPCs were created following a similar protocol used previously (Allan et al., 2020; Tripathi et al., 2019). In brief, guides were selected from the Brie library (Doench et al., 2016), cloned into the linearized CRISPRv2 backbone (Addgene 52961) (Sanjana et al., 2014), and sequence verified by sanger sequencing. HEK293T cells (Clonetech) were than transfected using lenti-X shots (manufacturer's protocol, Clonetech). Transfection media was replaced with N2B27 base media the following day. Lentivirus containing N2B27 was then collected after an additional 2 days, filtered, and supplemented with OPC growth factors PDGFA and FGF2 and added to OPCs at a ratio of 1:2 viral media to OPC growth media. The viral media was switched out for virus-free OPC growth the next day and allowed to recover for an additional 2 days. […]
Western blot: For cell culture derived protein samples, at least 1 million OPCs were collected and lysed in RIPA buffer (Sigma) supplemented with protease and phosphatase inhibitor (78441, Thermo Fisher) for at least 15 minutes and cleared by centrifugation at 13,000 g at 4° C. for 15 minutes. Protein concentrations were determined using the Bradford assay (Bio-Rad Laboratories). […] Membranes were then imaged and analyzed using Image Studio™ software. […]

oligodendrocytes = assay: RNA-seq gene set enrichment analysis (GSEA) of SOX6 knockout oligodendrocytes; conditions: SOX6 knockout vs control (sgNTC) oligodendrocytes, day 3 of differentiation
Excerpt: Generation of mouse CRISPR KO OPCs: CRISPR knockout (KO) OPCs were created following a similar protocol used previously (Allan et al., 2020; Tripathi et al., 2019). In brief, guides were selected from the Brie library (Doench et al., 2016), cloned into the linearized CRISPRv2 backbone (Addgene 52961) (Sanjana et al., 2014), and sequence verified by sanger sequencing. HEK293T cells (Clonetech) were than transfected using lenti-X shots (manufacturer's protocol, Clonetech). Transfection media was replaced with N2B27 base media the following day. Lentivirus containing N2B27 was then collected after an additional 2 days, filtered, and supplemented with OPC growth factors PDGFA and FGF2 and added to OPCs at a ratio of 1:2 viral media to OPC growth media. The viral media was switched out for virus-free OPC growth the next day and allowed to recover for an additional 2 days. At this point, infected OPCs were selected for 96 hours in OPC growth media supplemented with a lethal dose of puromcyin (500 ng/mL). OPCs were allowed to recover in selection free media for at least 24 hours prior to being aliquoted and frozen down. For all experiments, infected CRISPR KO and non-targeting control OPCs were derived from the same original batch of EpiSC-derived mouse OPCs. qPCR was performed to validate a reduction of gene targets for each batch of CRISPR KO OPCs generated.
Bulk RNA-seq sample preparation and alignment: OPCs were lysed in TRIzol and RNA was isolated as described for qPCR. Purified RNA was then submitted to Novogene for library preparation and sequencing on the Illumina NovaSeq (150 bp paired end). For gene expression analysis, reads were aligned to the mm10 genome and quantified in transcripts per million (TPM) values using salmon 0.14.1 (github dot com slash COMBINE-lab slash salmon). Transcripts were summarized as gene-level TPM abundances with tximport. A gene with TPM>1 was considered expressed. Differential expression analysis was performed using DESEQ2 (bioconductor.org slash packages slash release slash bioc slash html slash DESeq2 dot html). Significant genes were called based on p-adj and fold change values as described in the results section.
RNA-seq was then performed on SOX6 knockout OPCs and differentiating oligodendrocyte cultures compared to non-targeting controls (FIGS. 10B and 11A). In agreement with binding at nearly all super-enhancers in OPCs, Sox6 knockout OPCs harbored a reduction in OPC signature genes and transcription factors such as Cspg4 and Sox10 (FIGS. 11A-11C). In differentiating oligodendrocytes, loss of SOX6 led to a reduction in Sox6 condensate gene expression (FIGS. 10B, 10C, and 11D). In agreement with these condensate genes stabilizing genes transiently expressed by intermediate oligodendrocytes, SOX6 knockout oligodendrocytes harbored a significant reduction in intermediate oligodendrocyte gene expression (FIGS. 10D and 11E).

[1] = tested on: SOX6 biomolecular condensates; assay: confocal immunofluorescence coupled with RNA-FISH of Sox6 condensates in intermediate oligodendrocytes; conditions: upon addition of the drug
Excerpt: Given the massive density of SOX6, an inherently disordered protein, at super-enhancer associated genes that increase sharply in intermediate oligodendrocytes and then decrease in myelinating oligodendrocytes, it was hypothesized that these regions represent SOX6 biomolecular condensates that stabilize, not inhibit, the intermediate oligodendrocyte state (FIGS. 8F and 8G) (Daneshvar et al., 2020; Henninger et al., 2020; Hnisz et al., 2017; Sabari et al., 2018). Performing high resolution confocal microscopy of immunofluorescence coupled with RNA-FISH confirmed Sox6 puncta in intermediate oligodendrocytes that co-localized with the predicted Sox6 aggregate gene Bcas1, whereas this co-localization was severely diminished at the non-aggregate gene Gapdh.

Row | Molecule | SOX6 expression (SOX6) | GSEA of SOX6 aggregate (condensate) genes (oligodendrocytes) | GSEA of in vivo OPC signature genes (oligodendrocytes) | GSEA of in vivo intermediate oligodendrocyte signature genes (oligodendrocytes) | GSEA of in vivo myelinating oligodendrocyte signature genes (oligodendrocytes) | effect on Sox6 biomolecular condensates [1]
1 | sgSox6 g2: single guide RNA for CRISPR-Cas9 SOX6 knockout, sequence AGAACACGCTTTGAGAACCT (listed as DNA, chemistry not given here) | strong reduction | significant depletion | significant depletion | significant depletion | enrichment | 
2 | sgSox6 g1: single guide RNA for CRISPR-Cas9 SOX6 knockout, sequence TTGACGGAATGAACTGTACG (listed as DNA, chemistry not given here) | strong reduction | significant depletion | significant depletion | significant depletion | enrichment | 
3 | Cc1sc2c(c1C)C(c1ccc(Cl)cc1)=N[C@@H](CC(=O)OC(C)(C)C)c1nnc(C)n1-2 [JQ1] |  |  |  |  |  | dissolved
